The values that follow come from article PMC6350207 (Drug Metabolism Letters, 2018).

One data set deals with recombinant UGT enzymes. In words: Reaction phenotyping with recombinant UGT Supersomes. It is filed as in vitro ADME, human. The following applies: substrate 20 µM, UGT 0.2 mg/mL, 2 hours.
For data set [1] the following is noted: in humans; cited from earlier work.

In the case of `CC(C)Cc1ccc(CC(=O)O)cc1` [Ibufenac], the “Metabolism to the corresponding glucuronide by recombinant UGT enzymes” value in the data set on recombinant UGT enzymes was “none of the recombinant UGT enzymes studied in the present investigation were found to metabolize ibufenac”.

As for `CCCC(CCC)C(=O)O` [valproic acid], the “Share of drug metabolized to its corresponding glucuronide” value in data set [1] was 50%.
